Measurements published in patent publication US9446039B2, “Aminoheteroaryl compounds as MTH1 inhibitors” (CEMM—FORSCHUNGSZENTRUM FÜR MOLEKULARE MEDIZIN GMBH, priority 2012, dated 2016).
Entries after “also recorded” stand apart in the source; their conditions may differ.

Legend:
[1] = test system: MRC-5 lung fibroblasts; test: Comet assay in MRC-5 lung fibroblasts; type: cell-based
Procedure: (§1) Comet Assay. Cells were treated with compounds for 6 days, upon which DNA single-strand breaks were assayed using the comet assay under alkali conditions. […] Cells were washed twice with PBS, harvested using a rubber scraper, pelleted by centrifugation, resuspended in PBS and mixed with 1% low-gelling-temperature agarose (Sigma type VII) that was maintained at 37° C. The mixture of cells and agarose was layered onto frosted glass slides pre-coated with 0.5% agarose and slides were placed on ice to gel. Slides were maintained in the dark for all subsequent steps. […] After electrophoresis for 25 minutes at 25 volts, slides were placed at 4° C. over-night, in the dark. The following day, slides were neutralized with 0.4 M Tris-HCl pH 7.0 for 1 hour and stained with SYBR Gold (Invitrogen, diluted 1:10,000 in distilled water) for 30 minutes. Comet tail moments (defined as the average distance migrated by the DNA multiplied by the fraction of DNA in the comet tail) were scored using the CellProfiler cell image analysis software.

[2] = test system: BJ skin fibroblasts; test: Colony formation assay with untransformed BJ skin fibroblasts; type: cell-based, human; conditions: 10 days incubation
[3] = test system: Ewing's sarcoma family of tumours (ESFT) cells
[4] = test system: SH-SY5Y, NCI-H3122 and NCI-H1648 cell lysates; test: Chemical proteomics competition pull-downs (iTRAQ) in SH-SY5Y, NCI-H3122 and NCI-H1648 lysates; type: binding, human; conditions: competition with 20 μM unmodified crizotinib
[5] = test system: BJ fibroblasts; test: 8-oxo-guanine staining in BJ cells; conditions: fixed 72 h later
[6] = test system: SW480 cells; test: Alkaline comet assay (DNA single strand breaks) in SW480 cells; type: cell-based, human; conditions: 6 days treatment, alkali conditions
Procedure: as §1

[7] = test system: MDA-MB-231; conditions: 10 μM, versus DMSO-treated cells; KRAS G13D
[8] = test system: SW480 cells; test: Colony formation assay using SW480 cells; type: cell-based, human; conditions: K-Ras-mutated SW480 colon carcinoma
Procedure: Colony Formation Assay Using SW480 Cells. One day before treatment, 10^4 cells were seeded per well in 6-well plates and incubated for 24 h. The next day DMSO (equal to highest amount of compound dilution, maximum 0.2%) or compounds in increasing concentrations were added and cells incubated at 37° C., 5% CO2, for 7-10 days. After washing with PBS (Gibco), cells were fixed with ice-cold methanol, stained with crystal violet solution (0.5% in 25% methanol) and left to dry overnight. For quantification of results, UV absorbance of crystal violet was determined at 595 nm after solubilisation by 70% ethanol. Data were analysed using non-linear regression analysis utilizing the GraphPad Prism software.

[9] = test system: MCF-7; conditions: 10 μM, versus DMSO-treated cells
[10] = test system: isogenic BJ fibroblast cell lines; test: Colony formation assays in isogenic BJ fibroblast cell lines (anti-cancer specificity); type: cell-based; conditions: hTERT+SV40T, hTERT+SV40T+KRAS V12
Excerpt: FIG. 28: Anti-cancer specificity. […] As indicated, the investigated cell line panel comprised non-transformed (“wildtype”) cells, cells immortalized with telomerase (hTERT), cells transformed with hTERT and SV40 Large T antigen (SV40T), and cells transformed with hTERT, SV40T, and the KRAS mutant V12.
The investigated cell line panel comprised non-transformed (“wildtype”) cells, cells immortalized with telomerase (hTERT), cells transformed with hTERT and SV40 Large T antigen (SV40T), and cells transformed with hTERT, SV40T, and the KRAS mutant V12 (FIG. 28).

[11] = test system: SW480 colon carcinoma cells lysate proteins; type: binding, human; conditions: immobilized aminopropyl derivative of (S)-crizotinib
[12] = test system: HCT116 colon carcinoma cells; test: HCT116 isogenic cell line system (p53/p21/MLH1 status); conditions: HCT116 isogenic lines
[13] = test system: SW480 cells; test: ATM phosphorylation in SW480 cells; type: cell-based, human
[14] = Tolerability in the xenograft study: hematology, liver/heart/kidney parameters, body weight; type: in vivo, SCID mice
Procedure: Xenograft Study. SCID mice (female, 5-6 weeks, Scanbur, Germany) were s.c. injected with 1×10^6 SW480 cells together with a matrix gel (1:1) in the sacral area. Treatment was initiated one day after cell inoculation. Vehicle or MTH1 inhibitor was administered subcutaneously once daily at 25 mg/kg for 35 days. […] Tumour size was measured twice weekly and body weight once weekly. At termination, a gross postmortem inspection was performed; blood was collected for haematological parameters and ASAT, ALAT, creatinine measurements and tumours collected in paraformaldehyde (4%) and later paraffin inbedded for immunohistology analysis. All experiments involving animals followed protocols approved by Stockholms Norra djurfOrsoksetiska namnd (laboratory animal ethical committee Stockholm). All animals were acclimatised for one week, and had free access to water and food during the experiment. Animals were under a 12-hour lightcycle, and temperature and humidity according to laboratory animal guidelines and regulations.

[15] = test system: PANC1 pancreatic cancer cells; test: Colony formation assay using PANC1 cells; type: cell-based, human; conditions: K-Ras mutated PANC1
[16] = test system: SW480 cells; test: Indirect immunofluorescence for 53BP1 foci in SW480 cells; type: cell-based, human; conditions: 6 days treatment
Procedure: Indirect Immunofluorescence. Cells were treated with compounds for 6 days, following which they were adhered to glass coverslips, washed with PBS and then fixed with 3% paraformaldehyde in PBS for 20 minutes. Fixed cells were rinsed with PBS and permebealised with 0.5% Triton-X-100 for 5 minutes. PBS washed slides were incubated for 1 hour with 10% FCS and 0.1% Triton-X-100 in PBS following which cells were stained with an anti-53BP1 monoclonal antibody (H-300, Santa Cruz, diluted 1:600), in 10% FCS and 0.1% Triton-X-100 in PBS. […] After a PBS wash, DNA was counterstained with DAPI (Sigma-Aldrich) for 10 minutes and the coverslips were mounted in Fluorescent Mounting Medium (Dako). Images were analysed with a Zeiss fluorescent microscope at 63 times magnification with supporting software.

[17] = test system: SW480 cells; test: SW480 mouse xenograft study; type: in vivo, SCID mice; conditions: 25 mg/kg s.c. once daily, 35 days
Procedure: Xenograft Study. SCID mice (female, 5-6 weeks, Scanbur, Germany) were s.c. injected with 1×10^6 SW480 cells together with a matrix gel (1:1) in the sacral area. Treatment was initiated one day after cell inoculation. Vehicle or MTH1 inhibitor was administered subcutaneously once daily at 25 mg/kg for 35 days. MTH1 inhibitor was diluted in 1% DMSO, 10% ethanol, 10% cremaphore, 10% Tween 80, 69% PBS. Tumour size was measured twice weekly and body weight once weekly. At termination, a gross postmortem inspection was performed; blood was collected for haematological parameters and ASAT, ALAT, creatinine measurements and tumours collected in paraformaldehyde (4%) and later paraffin inbedded for immunohistology analysis. All experiments involving animals followed protocols approved by Stockholms Norra djurfOrsoksetiska namnd (laboratory animal ethical committee Stockholm). All animals were acclimatised for one week, and had free access to water and food during the experiment. Animals were under a 12-hour lightcycle, and temperature and humidity according to laboratory animal guidelines and regulations.

[18] = biological target: T1, MTH1 (Homo sapiens, UniProt P36639); test: MTH1 catalytic assay (luminescence-based, PPi from 8-oxo-dGTP hydrolysis, PPiLight); type: biochemical; design: His-tag (TEV site) (cleaved yes); made in house; host or cells: E. coli BL-21(DE3), vector pETM-11
[19] = test system: ALK; test: Drug pull-down with immobilized compounds from SH-SY5Y cells, Western blot for ALK; type: binding, human; conditions: SH-SY5Y lysate
Procedure: Immobilization and Affinity Purification. […] Briefly, 25 nmol of compound was immobilised on 50 μL NHS-activated Sepharose 4 Fast Flow beads (GE Healthcare Bio-Sciences AB, Uppsala, Sweden).

[20] = biological target: T1, MTH1; test: Isothermal titration calorimetry (direct binding assay); design: His-tag (TEV site) (cleaved yes); made in house; host or cells: E. coli BL21 DE3; conditions: 15° C., 50 mM Tris-HCl pH 7.8, 150 mM NaCl
[21] = test system: SW480 colon carcinoma cells; test: siRNA experiments (MTH1 gene silencing, colony staining); type: cell-based, human
Procedure: siRNA Experiments. Both a commercial anti-MTH1 siRNA set (SMARTpool ON-TARGETplus, Dharmacon) as well as a custom-synthesised siRNA (Sigma-Aldrich) were obtained. […]. For transfections, cells were seeded in 24-well plates at approximately 30% confluency 24 h prior to siRNA treatment. The next day, medium was aspirated and transfections were performed with […]in (Polyplus) according to manufacturer's instructions using a final siRNA concentration of 10 nM. Cells were incubated for 2-3 days, washed, detached with trypsin and replated in 6-well plates. After 7-10 days, medium was aspirated, cells were washed with PBS, fixed with ice-cold methanol, stained with crystal violet solution (0.5% in 25% methanol) and left to dry overnight. […]. Data were analysed using the GraphPad Prism software (t test, P<0.05).

[22] = 25 mg/kg s.c. 35 days, EDTA plasma, mean ± SD
[23] = 25 mg/kg s.c. 35 days, mean ± SD
[24] = error of nonlinear least squares fit

Compound: CC(Oc1cc(-c2cnn(C3CCNCC3)c2)cnc1N)c1c(Cl)ccc(F)c1Cl (racemic) [racemic crizotinib, 3-[1-(2,6-dichloro-3-fluoro-phenyl)-ethoxy]-5-(1-piperidin-4-yl-1H-pyrazol-4-yl)-pyridin-2-ylamine]
- DNA damage in comet assay [1]: induced DNA damage

Compound: C[C@@H](Oc1cc(-c2cnn(C3CCNCC3)c2)cnc1N)c1c(Cl)ccc(F)c1Cl [(R)-crizotinib, 3-[1-(2,6-dichloro-3-fluoro-phenyl)-ethoxy]-5-(1-piperidin-4-yl-1H-pyrazol-4-yl)-pyridin-2-ylamine]
- toxicity on non-transformed BJ skin fibroblasts (colony formation) ([2]; listed as (R)-enantiomer): significantly impairs the growth; also recorded: higher toxicity
- growth inhibition of ESFT cells [3]: inhibited the growth of these cells at low nanomolar concentrations
- targets identified by chemical proteomics [4]: common target of crizotinib in all samples
- staining of anti-8-oxo-guanine antibody [5]: not

Compound: C[C@H](Oc1cc(-c2cnn(C3CCNCC3)c2)cnc1N)c1c(Cl)ccc(F)c1Cl [(S)-enantiomer of crizotinib, (S)-3-[1-(2,6-dichloro-3-fluoro-phenyl)-ethoxy]-5-(1-piperidin-4-yl-1H-pyrazol-4-yl)-pyridin-2-ylamine]
- tail moment in the comet assay [6]: yielded a significant tail moment
- growth of MDA-MB-231 in colony formation assay [7]: significantly decreased the growth
- colony formation / growth of SW480 cells [8]: efficiently inhibited colony formation; also recorded: considerably more effective
- growth of MCF-7 in colony formation assay [9]: significantly decreased the growth
- toxicity on non-transformed BJ skin fibroblasts (colony formation) [2]: does not exhibit any increased unspecific cytotoxicity
- toxicity to transformed versus wildtype / hTERT-immortalized BJ cells [10]: more toxic to transformed cells than to wildtype cells
- main cellular target in SW480 cells [11]: MTH1 (gene name NUDT1) is the main target
- effect of loss of p21 on sensitivity of HCT116 cells [12]: seems to increase the sensitivity
- effect of p53 status and functional MLH1 on activity in HCT116 cells [12]: do not affect the activity
- ATM phosphorylation [13]: increase of ATM phosphorylation
- P-ALAT [14, 22]: 0.26 ± 0.07 mCat/l
- p-ASAT [14, 22]: 1.10 ± 0.32 mCat/l
- p-Creatinine [14, 22]: 18.6 ± 4.24 µM
- HBG [14, 23]: 134 ± 6.25 g/L
- Lymphocytes [14, 23]: 0.23 ± 0.06 10^9/l
- MCH [14, 23]: 14.07 ± 0.30 pg
- MCHC [14, 23]: 327 ± 4.90 g/L
- MCV [14, 23]: 43.02 ± 1.07 fL
- Monocytes [14, 23]: 0.16 ± 0.11 10^9/l
- Neutrophils [14, 23]: 1.50 ± 0.51 10^9/l
- RBC [14, 23]: 9.51 ± 0.37 10^12/l
- Thrombocytes [14, 23]: 828 ± 160 10^9/l
- WBC [14, 23]: 1.90 ± 0.64 10^9/l
- tolerability ([14]; 25 mg/kg s.c. once daily, 35 days): well-tolerated
- change in haematological parameters ([14]; 25 mg/kg s.c., 35 days, versus vehicle): no significant change
- colony formation of PANC1 cells [15]: efficiently inhibited colony formation
- number of 53BP1 foci [16]: increase the number of 53BP1 foci
- reduction in tumour volume [17]: more than 50%
- staining of anti-8-oxo-guanine antibody [5]: increased staining

Compound: CC(Oc1cc(-c2cnn(C3CCN(CCCN)CC3)c2)cnc1N)c1c(Cl)ccc(F)c1Cl (centres unmarked) [CeMM-146]
- inhibition of MTH1 catalytic activity (in words) ([18]; 8-oxo-dGTP hydrolysis): nanomolar inhibition
- enrichment / binding of ALK isoforms by immobilized compound [19]: enriches both ALK isoforms to highest extent

Compound: Cn1cc(-c2ccc3nnc(C(F)(F)c4ccc5ncccc5c4)n3n2)cn1 [JNJ-38877605, reference compound]
- colony formation / growth of SW480 cells [8]: does not suppress growth

Compound: COc1cc(N2CCC(N3CCN(C)CC3)CC2)ccc1Nc1ncc(Cl)c(Nc2ccccc2S(=O)(=O)C(C)C)n1 [NVP-TAE684, reference compound]
- inhibition of MTH1 catalytic activity at 100 μM ([18]; concentrations of 100 μM, data not shown): did not exhibit any significant inhibition

Compound: COc1ccc2nc3c(c(C)nn3C)c(NCCOCCO)c2c1 [SCH51344]
- tail moment in the comet assay [6]: yielded a significant tail moment
- TΔS [20]: 3.17 kcal/mol
- Kd [20, 24]: 0.049 ± 0.0056 µM
- ΔH [20, 24]: -6.479 ± 0.045 kcal/mol
- number of 53BP1 foci [16]: increase the number of 53BP1 foci

Compound: anti-MTH1 siRNA: siRNA against MTH1; custom sequence CGACGACAGCUACUGGUUU (SEQ ID No. 48) or SMARTpool set (listed as RNA, chemistry not given here)
- viability of SW480 cells after MTH1 gene silencing [21]: impairs viability
